According to patent US20080260817A1, “Compositions for the Treatment of Inflammation and Pain Using a Combination of a Cox-2 Selective Inhibitor and a Ltb4 Receptor Antagonist” (priority 2004, published 2008):

Assays:
Type in all cases: in vivo
[1] = test system: collagen-induced arthritis in male DBA/1 mice; experiment: Collagen-induced arthritis in mice (incidence, severity, weight); conditions: for Weight: in g (unit assumed); for % Incidence: individual inhibitors in the comparison experiment
Description: Arthritis is induced in 8-12 week old male DBA/1 mice by injection of 50 micrograms of chick type II collagen (CII) in complete Freunds adjuvant (Sigma) on day 0 at the base of the tail as described in J. Stuart, Annual Rev. Immunol., 2, 199 (1984). Compounds are prepared as a suspension in 0.5% methylcelluose (Sigma, St. Louis, Mo.), 0.025% Tween 20 (Sigma). The COX-2 inhibitors (Example 1 and 2) and LTB4 receptor antagonist (Example 3) are administered alone or a COX-2 inhibitor and an LTB4 receptor antagonist in combination. The compounds are administered in non-arthritic animals by gavage in a volume of 0.1 mL beginning on day 20 post collagen injection and continuing daily until final evaluation on day 55. Animals are boosted on day 21 with 50 micrograms of collagen (CII) in incomplete Freunds adjuvant. The animals are subsequently evaluated several times each week for incidence and severity of arthritis until day 56. Any animal with paw redness or swelling is counted as arthritic. Scoring of severity is carried out using a score of 0-3 for each paw (maximal score of 12/mouse) as described in P. Wooley, et al., Trans. Proc., 15, 180 (1983). The animals are measured for incidence of arthritis and severity in the animals where arthritis is observed. The incidence of arthritis is determined at a gross level by observing the swelling or redness in the paw or digits. Severity is measured with the following guidelines. Briefly, animals displaying four normal paws, i.e., no redness or swelling are scored 0. Any redness or swelling of digits or the paw is scored as 1. Gross swelling of the whole paw or deformity is scored as 2. Ankylosis of joints is scored as 3.
Eight- to twelve-week old male DBA/1 mice were injected at the base of the tail with 50 micrograms of chick type II collagen in CFA. 21 days later, animals were boosted with 50 micrograms chick type II collagen in IFA. […] On day 56 animals were evaluated for arthritis. Any animals displaying inflammation in the paw were included as positive for incidence. In addition, paw swelling was graded on a standard scale of 0-3/paw (total score of 12/animal).

[2] = test system: zymosan-stimulated air pouch, cells infiltrated per pouch; experiment: Murine air pouch model, 2 hour zymosan; conditions: Table 7 (FIG. 1); female Balb/c mice; PO BID from day 5; pouch lavage 2 hours after 1% zymosan on day 7; 30 mpk COX-2 Inhibitor, 300mpk LTB4 RA, alone or combined
Description: In the present invention, the anti-inflammatory effects of COX-2 inhibitors and LTB4 inhibitors, both alone and together, can be evaluated using the mouse air pouch model (see Example 1 and FIG. 1). Following the addition of a COX-2 inhibitor, or an LTB4 inhibitor, or both, to a zymosan-stimulated air pouch, results may be reported as the number of cells that have infiltrated per pouch as an indicator of inflammation.
Female Balb/c mice age 8-12 weeks are injected with approximately 5 milliliters of air subcutaneous using a 10 milliliter syringe with a 27-gauge needle and a 0.2 micron acrodisc filter. The animals are anesthetized with CO2/O2 mix, and then the air injection is made subcutaneously in the intrascapular region of the mouse. Animals' pouches are reinflated every 2-3 days with approximately 2-3 milliliters of air, same as above. Dosing of each compound, including Vehicle (0.5% Methylcellulose+0.025% Tween 80) or a COX-2 inhibitor (compound C-1, 15 mpk, BID), or an LTB4 receptor antagonist (compound L-2, 150 mpk, BID), or the COX-2 inhibitor combined with the LTB4 receptor antagonist (compound C-1, 30 mpk+compound L-2 150 mpk BID), starting on day 5 at 6 am. Compounds are given orally (PO) and dosed BID in a volume of 0.2 milliliters per/dose. […] Total cells/mouse is calculated using a coulter counter. […]

[3] = test system: collagen-induced arthritis in male DBA/1 mice; experiment: Collagen-induced arthritis in mice (incidence, severity, weight); conditions: Table 4 (FIG. 2); evaluated day 56; treated from day 21; compound C-1 15 mpk bid, compound L-2 150 mpk bid, alone or combined
[4] = Table 4 (FIG. 2), C-1 15 mpk bid, L-2 150 mpk bid, alone or combined
[5] = Table 4 (FIG. 2), day 56, paw swelling graded 0-3/paw, total score of 12/animal, C-1 15 mpk bid, L-2 150 mpk bid, alone or combined
[6] = Table 6 (FIG. 4), doses not given
[7] = Table 6 (FIG. 4), score 0-3/paw, total 12/animal, doses not given

Compound | Weight [1, 4] | Severity [1, 5] | Weight [1, 6] | % Incidence [1, 6] [%] | Severity [1, 7] | Total Cells/Mouse [2] | % Incidence [3] [%]
Cc1ccc(-c2cc(C(F)(F)F)nn2-c2ccc(S(N)(=O)=O)cc2)cc1 [COX-2 Inhib., celecoxib] | 24.66 | 5.1 | 24.66 | 100 | 5.1 | 40600000 | 100
O=C(O)C1(c2ccc3c(c2)OCC(Cc2ccc(-c4ccccc4)cc2)[C@H]3O)CCCC1 (stereo partly drawn) [LTB4 ra, 1-[3-([1,1′-biphenyl]-4-ylmethyl)-3,4-dihydro-4-hydroxy-2H-1-benzopyran-7-yl]-cyclopentanecarboxylic acid, (3S-trans)] | 26.77 | 2.7 | 26.77 | 90 | 2.7 | 38900000 | 90
